According to patent publication US20260007681A1, “INDOLE DERIVATIVES AS ESTROGEN RECEPTOR DEGRADERS” (REGENTS OF THE UNIVERSITY OF MICHIGAN, priority 2022, published 2026):
Where two headings read alike, the source gives them in different places.

Experiments:
[1] = Cell growth assay (WST-8) (Compounds B1-B278); type: cell-based; conditions: T47D cell line, WST-8, 4 days, read-out: Cell Growth Inhibition in T47D cell line IC50
Summary of the method: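 Cells seeded at 1500/well overnight, treated one day later with compound doses for 4 days, then 10% WST-8 added for 2.5 h at 37° C in CO2. Absorbance at 450 nm, expressed relative to vehicle control over three independent repeats.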

ER = ER (Homo sapiens (Human), UniProt P03372); assay: In-cell western blot analysis of relative ER percentage (Compounds B1-B278); type: cell-based; conditions: ER degradation, 16 hours, read-out: ICW DC50
ER, sequence (P03372 whole entry): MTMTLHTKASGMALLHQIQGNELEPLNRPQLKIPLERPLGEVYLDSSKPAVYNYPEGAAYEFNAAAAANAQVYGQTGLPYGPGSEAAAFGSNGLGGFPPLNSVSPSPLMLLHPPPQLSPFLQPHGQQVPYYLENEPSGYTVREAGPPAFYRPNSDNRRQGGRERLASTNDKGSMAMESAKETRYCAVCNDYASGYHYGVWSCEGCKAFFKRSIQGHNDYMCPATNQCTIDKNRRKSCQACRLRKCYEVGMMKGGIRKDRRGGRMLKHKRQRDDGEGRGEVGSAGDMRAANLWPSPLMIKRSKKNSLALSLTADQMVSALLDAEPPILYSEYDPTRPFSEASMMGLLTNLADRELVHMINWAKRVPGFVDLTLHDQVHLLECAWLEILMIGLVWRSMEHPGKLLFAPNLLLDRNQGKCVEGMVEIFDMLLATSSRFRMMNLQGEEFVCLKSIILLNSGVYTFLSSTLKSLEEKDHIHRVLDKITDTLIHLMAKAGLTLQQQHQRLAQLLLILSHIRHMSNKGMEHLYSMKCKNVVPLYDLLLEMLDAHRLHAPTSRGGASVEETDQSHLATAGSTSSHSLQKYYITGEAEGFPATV
Summary of the method: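 Cells seeded at 40,000 or 10,000 cells/well and treated with compound (final 0.5% DMSO) for 16 h, then formaldehyde-fixed, Triton-permeabilized and co-stained for ER and GAPDH with 680/800 secondaries; LI-COR plate read. ER level expressed relative to untreated/DMSO-treated wells set at 100%.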

DC50 (ER) | Structure (SMILES) | IC50 ([1]; 96 h) | IC50 [1]
< 10 nM | C[C@@H]1Cc2c([nH]c3ccccc23)[C@@H](c2cnc(N3CCC4(CC3)CC(CN3CCN5c6ccc7c(c6OC[C@H]5C3)CN(C3CCC(=O)NC3=O)C7=O)CO4)nc2)N1CC(C)(C)F (stereo partly drawn) [Compound B168, 3-((5aR)-7-((8-(5-((1R,3R)-2-(2-fluoro-2-methylpropyl)-3-methyl-2,3,4,9-tetrahydro-1H-pyrido[3,4-b]indol-1-yl)pyrimidin-2-yl)-1-oxa-8-azaspiro[4.5]decan-3-yl)methyl)-1-oxo-1,3,5,5a,6,7,8,9-octahydro-2H-pyrazino[1′,2′:4,5][1,4]oxazino[2,3-e]isoindol-2-yl)piperidine-2,6-dione] | 1 to 10 nM | 
> 100 nM | C[C@@H]1Cc2c([nH]c3ccccc23)[C@@H](c2c(F)cc(N3CCC(CN4CCN5c6ccc7c(c6OC[C@H]5C4)CN(C4CCC(=O)NC4=O)C7=O)CC3)cc2F)N1CC(F)(F)CO (stereo partly drawn) [Compound B148, 3-((R)-7-((1-(4-((1R,3R)-2-(2,2-difluoro-3-hydroxypropyl)-3-methyl-2,3,4,9-tetrahydro-1H-pyrido[3,4-b]indol-1-yl)-3,5-difluorophenyl)piperidin-4-yl)methyl)-1-oxo-1,3,5,5a,6,7,8,9-octahydro-2H-pyrazino[1′,2′:4,5][1,4]oxazino[2,3-e]isoindol-2-yl)piperidine-2,6-dione] | < 1 nM | 
10 to 100 nM | COc1c2c(cc3c1CN(C1CCC(=O)NC1=O)C3=O)CN(CC(=O)N1CCC3(CC1)CCN(c1cc(F)c([C@@H]4c5[nH]c6ccccc6c5C[C@@H](C)N4CC(F)F)c(F)c1)CC3)C2 (stereo partly drawn) [Compound B130, 3-(6-(2-(9-(4-((1R,3R)-2-(2,2-difluoroethyl)-3-methyl-2,3,4,9-tetrahydro-1H-pyrido[3,4-b]indol-1-yl)-3,5-difluorophenyl)-3,9-diazaspiro[5.5]undecan-3-yl)-2-oxoethyl)-4-methoxy-1-oxo-3,5,6,7-tetrahydropyrrolo[3,4-f]isoindol-2(1H)-yl)piperidine-2,6-dione] | 1 to 10 nM | 
> 100 nM | C[C@@H]1Cc2c([nH]c3ccccc23)[C@@H](c2cnc(N3CC4(CCC(CN5Cc6cc7c(cc6C5)C(=O)N(C5CCC(=O)NC5=O)C7=O)CC4)C3)nc2)N1CC(F)(F)CO (stereo partly drawn) [Compound B167, 6-((2-(5-((1R,3R)-2-(2,2-difluoro-3-hydroxypropyl)-3-methyl-2,3,4,9-tetrahydro-1H-pyrido[3,4-b]indol-1-yl)pyrimidin-2-yl)-2-azaspiro[3.5]nonan-7-yl)methyl)-2-(2,6-dioxopiperidin-3-yl)-6,7-dihydropyrrolo[3,4-f]isoindole-1,3(2H,5H)-dione] | > 10 nM | 
10 to 100 nM | C[C@@H]1Cc2c([nH]c3ccccc23)[C@@H](c2cnc(N3CCC(CN4CCN5c6ccc7c(c6OC[C@H]5C4)CN(C4CCC(=O)NC4=O)C7=O)CC3)nc2)N1CC(F)F (mixture of isomers) [Compound B254, 3-((RS)-7-((1-(5-((1R,3R)-2-(2,2-difluoroethyl)-3-methyl-2,3,4,9-tetrahydro-1H-pyrido[3,4-b]indol-1-yl)pyrimidin-2-yl)piperidin-4-yl)methyl)-1-oxo-1,3,5,5a,6,7,8,9-octahydro-2H-pyrazino[1′,2′:4,5][1,4]oxazino[2,3-e]isoindol-2-yl)piperidine-2,6-dione] | < 1 nM | 
> 100 nM | C[C@@H]1Cc2c([nH]c3ccccc23)[C@@H](c2cnc(N3CCC4(CCC(N5CCN6c7ccc8c(c7OC[C@H]6C5)CN(C5CCC(=O)NC5=O)C8=O)CC4)CC3)nc2)N1CC(F)F (stereo partly drawn) [Compound B163, 3-((R)-7-(3-(5-((1R,3R)-2-(2,2-difluoroethyl)-3-methyl-2,3,4,9-tetrahydro-1H-pyrido[3,4-b]indol-1-yl)pyrimidin-2-yl)-3-azaspiro[5.5]undecan-9-yl)-1-oxo-1,3,5,5a,6,7,8,9-octahydro-2H-pyrazino[1′,2′:4,5][1,4]oxazino[2,3-e]isoindol-2-yl)piperidine-2,6-dione] | > 10 nM | 
> 100 nM | C[C@@H]1CC2c3ccccc3NC2[C@@H](c2c(F)cc(N3CCC4(CC3)CC(CN3CCN5c6cc7c(cc6OC[C@H]5C3)C(=O)N(C3CCC(=O)NC3=O)C7)CO4)cc2F)N1CC(F)(F)CO (stereo partly drawn) [Compound B267, 3-((4aR)-3-((8-(4-((1R,3R)-2-(2,2-difluoro-3-hydroxypropyl)-3-methyl-2,3,4,4a,9,9a-hexahydro-1H-pyrido[3,4-b]indol-1-yl)-3,5-difluorophenyl)-1-oxa-8-azaspiro[4.5]decan-3-yl)methyl)-8-oxo-1,2,3,4,4a,5,8,10-octahydro-9H-pyrazino[1′,2′:4,5][1,4]oxazino[2,3-f]isoindol-9-yl)piperidine-2,6-dione] | > 10 nM | 
10 to 100 nM | C[C@@H]1Cc2c([nH]c3ccccc23)[C@@H](c2ccc(N3CCC4(CC3)CC(CN3CCN5c6cc7c(cc6OC[C@@H]5C3)C(=O)N(C3CCC(=O)NC3=O)C7)CO4)cn2)N1CC(F)(F)F (stereo partly drawn) [Compound B147, 3-((4aS)-3-((8-(6-((1S,3R)-3-methyl-2-(2,2,2-trifluoroethyl)-2,3,4,9-tetrahydro-1H-pyrido[3,4-b]indol-1-yl)pyridin-3-yl)-1-oxa-8-azaspiro[4.5]dccan-3-yl)methyl)-8-oxo-1,2,3,4,4a,5,8,10-octahydro-9H-pyrazino[1′,2′:4,5][1,4]oxazino[2,3-f]isoindol-9-yl)piperidine-2,6-dione] | 1 to 10 nM | 
> 100 nM | C[C@@H]1Cc2c([nH]c3ccccc23)[C@@H](c2c(F)cc(N3CC[C@@H](CN4CCN5c6ccc7c(c6OC[C@H]5C4)CN(C4CCC(=O)NC4=O)C7=O)C3)cc2F)N1CC(F)(F)CO (stereo partly drawn) [Compound B149, 3-((R)-7-(((S)-1-(4-((1R,3R)-2-(2,2-difluoro-3-hydroxypropyl)-3-methyl-2,3,4,9-tetrahydro-1H-pyrido[3,4-b]indol-1-yl)-3,5-difluorophenyl)pyrrolidin-3-yl)methyl)-1-oxo-1,3,5,5a,6,7,8,9-octahydro-2H-pyrazino[1′,2′:4,5][1,4]oxazino[2,3-e]isoindol-2-yl)piperidine-2,6-dione] | 1 to 10 nM | 
10 to 100 nM | C[C@@H]1Cc2c([nH]c3ccccc23)[C@@H](c2cnc(N3CCC(OCCN4CCN5c6cc7c(cc6OC[C@@H]5C4)C(=O)N([C@@H]4CCC(=O)NC4=O)C7)CC3)nc2)N1CC(F)F [Compound B123, (R)-3-((S)-3-(2-((1-(5-((1R,3R)-2-(2,2-difluoroethyl)-3-methyl-2,3,4,9-tetrahydro-1H-pyrido[3,4-b]indol-1-yl)pyrimidin-2-yl)piperidin-4-yl)oxy)ethyl)-8-oxo-1,2,3,4,4a,5,8,10-octahydro-9H-pyrazino[1′,2′:4,5][1,4]oxazino[2,3-f]isoindol-9-yl)piperidine-2,6-dione] | 1 to 10 nM | 
10 to 100 nM | C[C@@H]1Cc2c([nH]c3ccccc23)[C@@H](c2ccc(N3CCC4(CC3)CC(CN3CCN5c6cc7c(cc6OC[C@@H]5C3)C(=O)N(C3CCC(=O)NC3=O)C7)CO4)cn2)N1CC(F)(F)F (stereo partly drawn) [Compound B269, 3-((4aS)-3-((8-(6-((1S,3R)-3-methyl-2-(2,2,2-trifluoroethyl)-2,3,4,9-tetrahydro-1H-pyrido[3,4-b]indol-1-yl)pyridin-3-yl)-1-oxa-8-azaspiro[4.5]decan-3-yl)methyl)-8-oxo-1,2,3,4,4a,5,8,10-octahydro-9H-pyrazino[1′,2′:4,5][1,4]oxazino[2,3-f]isoindol-9-yl)piperidine-2,6-dione] |  | 1 to 10 nM
< 10 nM | C[C@@H]1Cc2c([nH]c3ccccc23)[C@@H](c2cnc(N3CCC(CCN4CCN5c6cc7c(cc6OC[C@@H]5C4)C(=O)N(C4CCC(=O)NC4=O)C7)CC3)nc2)N1CC(F)F (stereo partly drawn) [Compound B121, 3-((S)-3-(2-(1-(5-((1R,3R)-2-(2,2-difluoroethyl)-3-methyl-2,3,4,9-tetrahydro-1H-pyrido[3,4-b]indol-1-yl)pyrimidin-2-yl)piperidin-4-yl)ethyl)-8-oxo-1,2,3,4,4a,5,8,10-octahydro-9H-pyrazino[1′,2′:4,5][1,4]oxazino[2,3-f]isoindol-9-yl)piperidine-2,6-dione] | 1 to 10 nM | 
> 100 nM | C[C@@H]1Cc2c([nH]c3ccccc23)[C@@H](c2ccc(N3CCC4(CC3)CC(CN3CCN5c6ccc7c(c6OC[C@H]5C3)CN(C3CCC(=O)NC3=O)C7=O)C4)nc2)N1CC(F)F (stereo partly drawn) [Compound B169, 3-((R)-7-((7-(5-((1R,3R)-2-(2,2-difluoroethyl)-3-methyl-2,3,4,9-tetrahydro-1H-pyrido[3,4-b]indol-1-yl)pyridin-2-yl)-7-azaspiro[3.5]nonan-2-yl)methyl)-1-oxo-1,3,5,5a,6,7,8,9-octahydro-2H-pyrazino[1′,2′:4,5][1,4]oxazino[2,3-e]isoindol-2-yl)piperidine-2,6-dione] | 1 to 10 nM | 

Structure (SMILES) | DC50 (ER) | IC50 ([1]; 96 h) | IC50 [1]
COc1cc(N2CCC3(CC2)CC(CN2CCC4(CC2)COc2c4ccc4c2CN(C2CCC(=O)NC2=O)C4=O)C3)ccc1[C@@H]1c2[nH]c3ccccc3c2C[C@@H](C)N1CC(F)F (stereo partly drawn) [Compound B140, 3-(1′-((7-(4-((1R,3R)-2-(2,2-difluoroethyl)-3-methyl-2,3,4,9-tetrahydro-1H-pyrido[3,4-b]indol-1-yl)-3-methoxyphenyl)-7-azaspiro[3.5]nonan-2-yl)methyl)-6-oxo-6,8-dihydro-2H,7H-spiro[furo[2,3-e]isoindole-3,4′-piperidin]-7-yl)piperidine-2,6-dione] | < 10 nM | < 1 nM | 
